{"source": "patent US9376395B2", "about": "(priority 2011, dated 2016)", "key": {"Human NSCLC A549 cells": {"test_system": "Human NSCLC A549 cells", "conditions": "60 mg/kg i.v. day 1, 4, 8, 11, 18, 25; 10% HPβCD formulation; balb/c nu/nu mice"}, "NCI-60 cell lines": {"test_system": "NCI-60 cell lines", "assay": "NCI-60 cell line panel screening", "type": "cell-based, human", "conditions": "vs Bendamustine"}}}
{"smiles": "Cn1c(CCCC(=O)O)nc2cc(N(CCCl)CCCl)ccc21", "note": "[Bendamustine, reference compound]", "values": [{"measurement": "Body weight", "setting": "Human NSCLC A549 cells", "value": 28.6, "unit": "g"}, {"measurement": "T/C (%)", "setting": "Human NSCLC A549 cells", "value": 71.9, "unit": "%"}, {"measurement": "Tumor volume (mm3)", "setting": "Human NSCLC A549 cells", "value": 1716.5, "unit": "mm3"}, {"measurement": "Tumor weight", "setting": "Human NSCLC A549 cells", "value": 1.97, "unit": "g"}]}
{"smiles": "Cn1c(CCCCCCC(=O)NO)nc2cc(N(CCCl)CCCl)ccc21", "note": "[NL-101]", "values": [{"measurement": "fold more potent than Bendamustine in the NCI-60 cell lines", "setting": "NCI-60 cell lines", "value": "25-100 fold"}, {"measurement": "Body weight", "setting": "Human NSCLC A549 cells", "value": 27.6, "unit": "g"}, {"measurement": "T/C (%)", "setting": "Human NSCLC A549 cells", "value": 37.7, "unit": "%"}, {"measurement": "Tumor volume (mm3)", "setting": "Human NSCLC A549 cells", "value": 772.7, "unit": "mm3"}, {"measurement": "Tumor weight", "setting": "Human NSCLC A549 cells", "value": 0.88, "unit": "g"}]}
